Laboratory results reported in ChEMBL document CHEMBL6127118, “Identification of Oral Bioavailable Coumarin Derivatives as Potential AR Antagonists Targeting Prostate Cancer” (J Med Chem, 2024).

Columns and labels:
Androgen receptor = target: T1, Androgen receptor (Homo sapiens, UniProt P10275); experiment: Antagonist activity at DHT-induced Androgen receptor in human LNCaP cells transfected with ARR2PB-eGFP incubated for 3 days; format: cell-based
T1 sequence (P10275 whole entry): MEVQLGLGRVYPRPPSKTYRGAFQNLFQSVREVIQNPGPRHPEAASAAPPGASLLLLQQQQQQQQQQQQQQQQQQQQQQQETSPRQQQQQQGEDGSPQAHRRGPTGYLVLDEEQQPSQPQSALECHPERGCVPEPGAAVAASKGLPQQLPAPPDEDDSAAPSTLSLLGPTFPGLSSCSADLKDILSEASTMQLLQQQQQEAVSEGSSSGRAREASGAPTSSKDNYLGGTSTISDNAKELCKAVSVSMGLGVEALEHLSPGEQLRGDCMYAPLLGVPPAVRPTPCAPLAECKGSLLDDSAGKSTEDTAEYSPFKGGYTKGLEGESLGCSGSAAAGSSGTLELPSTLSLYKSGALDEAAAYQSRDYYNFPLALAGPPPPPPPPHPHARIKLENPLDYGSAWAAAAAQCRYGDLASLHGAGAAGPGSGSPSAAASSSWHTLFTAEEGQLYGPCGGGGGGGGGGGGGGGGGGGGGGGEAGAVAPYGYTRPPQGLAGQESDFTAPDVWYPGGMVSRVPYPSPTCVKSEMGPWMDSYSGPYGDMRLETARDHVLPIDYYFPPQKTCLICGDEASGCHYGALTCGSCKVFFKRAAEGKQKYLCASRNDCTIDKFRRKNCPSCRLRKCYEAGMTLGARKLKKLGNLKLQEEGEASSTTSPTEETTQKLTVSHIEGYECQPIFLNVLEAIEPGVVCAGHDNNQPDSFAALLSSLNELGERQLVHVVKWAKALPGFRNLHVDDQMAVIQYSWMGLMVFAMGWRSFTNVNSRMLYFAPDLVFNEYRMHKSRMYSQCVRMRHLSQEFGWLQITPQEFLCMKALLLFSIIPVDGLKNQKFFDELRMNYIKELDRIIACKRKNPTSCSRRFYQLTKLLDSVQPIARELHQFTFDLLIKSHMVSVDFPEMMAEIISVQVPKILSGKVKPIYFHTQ

[1] = target: T2, Mineralocorticoid receptor (Homo sapiens, UniProt P08235); experiment: Antagonist activity at aldosterone-induced Mineralocorticoid receptor (unknown origin) transfected in HEK293T cells by Dual-Luciferase Reporter assay
T2 sequence (P08235 whole entry): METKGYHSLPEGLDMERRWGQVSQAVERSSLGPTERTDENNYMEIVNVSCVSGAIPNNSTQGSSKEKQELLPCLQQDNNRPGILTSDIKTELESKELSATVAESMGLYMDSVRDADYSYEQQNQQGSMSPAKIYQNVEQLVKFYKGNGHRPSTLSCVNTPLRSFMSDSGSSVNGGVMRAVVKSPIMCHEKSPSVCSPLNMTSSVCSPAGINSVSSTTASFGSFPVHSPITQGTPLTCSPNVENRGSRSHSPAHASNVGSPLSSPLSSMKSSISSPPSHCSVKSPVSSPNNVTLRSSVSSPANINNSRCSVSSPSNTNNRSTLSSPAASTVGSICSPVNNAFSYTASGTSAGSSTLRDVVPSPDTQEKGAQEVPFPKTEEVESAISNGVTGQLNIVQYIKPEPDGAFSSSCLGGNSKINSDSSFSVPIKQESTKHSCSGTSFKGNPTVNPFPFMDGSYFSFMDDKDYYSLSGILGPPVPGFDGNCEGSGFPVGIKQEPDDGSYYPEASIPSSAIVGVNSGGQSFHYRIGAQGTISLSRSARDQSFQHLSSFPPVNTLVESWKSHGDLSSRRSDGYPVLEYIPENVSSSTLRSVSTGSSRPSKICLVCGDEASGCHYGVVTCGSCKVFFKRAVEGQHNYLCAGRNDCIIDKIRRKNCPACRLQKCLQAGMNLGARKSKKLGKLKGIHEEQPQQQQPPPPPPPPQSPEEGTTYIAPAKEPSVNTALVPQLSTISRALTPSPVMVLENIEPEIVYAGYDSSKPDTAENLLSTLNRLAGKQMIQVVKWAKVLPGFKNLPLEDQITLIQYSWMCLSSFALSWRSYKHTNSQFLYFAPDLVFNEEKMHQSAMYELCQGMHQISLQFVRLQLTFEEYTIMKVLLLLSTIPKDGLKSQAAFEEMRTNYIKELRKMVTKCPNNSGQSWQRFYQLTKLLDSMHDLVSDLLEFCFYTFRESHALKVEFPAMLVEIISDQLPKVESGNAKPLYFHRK

GES1 = experiment: (§1) Antiproliferative activity against human GES1 cells incubated for 72 hrs by MTT assay; format: toxicity, cell-based; details: ges1, 72 h, time 72 hrs
[2] = as §1; format: toxicity, cell-based; details: GES1 cells
LNCaP = experiment: Antiproliferative activity against androgen dependent-human LNCaP cells incubated for 72 hrs by MTT assay
PC-3 = experiment: Antiproliferative activity against androgen independent-human PC-3 cells incubated for 72 hrs by MTT assay; details: PC-3, 72 h
CWR22R = experiment: Antiproliferative activity against androgen independent-human 22Rv1 cells incubated for 72 hrs by MTT assay; details: 22Rv1, 72 h
[3] = Inhibition of DHT-induced secreted PSA production in human LNCaP cells
[4] = Half life in Sprague-Dawley rat at 1 mg/kg, iv; format: ADME, organism-based; details: in vivo
[5] = Cmax in Sprague-Dawley rat at 5 mg/kg, po; format: ADME, organism-based; details: in vivo
[6] = AUC (0 to t) in Sprague-Dawley rat at 5 mg/kg, po; format: ADME, organism-based; details: in vivo
DU-145 = experiment: Antiproliferative activity against androgen independent-human DU-145 cells incubated for 72 hrs by MTT assay; details: DU-145, 72 h
[7] = AUC (0 to t) in Sprague-Dawley rat at 1 mg/kg, iv; format: ADME, organism-based; details: in vivo
[8] = Cmax in Sprague-Dawley rat at 1 mg/kg, iv; format: ADME, organism-based; details: in vivo
LNCaP C4-2B = experiment: Antiproliferative activity against androgen independent-human LNCaP C4-2B cells incubated for 72 hrs by MTT assay
[9] = Apparent volume of distribution in Sprague-Dawley rat at 1 mg/kg, iv; format: ADME, organism-based; details: in vivo, read-out: Vz
[10] = Oral bioavailability in Sprague-Dawley rat at 5 mg/kg; format: ADME, organism-based; details: in vivo
[11] = Clearance in Sprague-Dawley rat at 1 mg/kg, iv; format: ADME, organism-based; details: in vivo
[12] = Apparent volume of distribution in Sprague-Dawley rat at 5 mg/kg, po; format: ADME, organism-based; details: in vivo
NIH3T3 = experiment: Antiproliferative activity against mouse NIH3T3 cells incubated for 72 hrs by MTT assay; format: toxicity, cell-based; details: nih3t3, 72 h
[13] = Clearance in Sprague-Dawley rat at 5 mg/kg, po; format: ADME, organism-based; details: in vivo
[14] = Antiproliferative activity against human Chang liver cells incubated for 72 hrs by MTT assay; format: toxicity, cell-based
[15] = Half life in Sprague-Dawley rat at 5 mg/kg, po; format: ADME, organism-based; details: in vivo

SMILES: CCN(Cc1ccc(F)cc1)c1ccc2c(C(F)(F)F)cc(=O)oc2c1
- IC50 (Androgen receptor): 83 nM

SMILES: CCN(CC)c1cc2c(C(F)(F)F)cc(=O)oc2cc1OCc1ccc(Br)cc1
- IC50 (Androgen receptor): > 10000 nM

SMILES: C[C@]12CCC(=O)C[C@@H]1CC[C@@H]1[C@@H]2CC[C@]2(C)[C@@H](O)CC[C@@H]12 [STANOLONE]
- IC50 [1]: 1.24 nM

SMILES: CCN(Cc1cc(F)ccc1F)c1ccc2c(C(F)(F)F)cc(=O)oc2c1
- IC50 (Androgen receptor): 430 nM

SMILES: CNC(=O)c1ccc(N2C(=S)N(c3ccc(C#N)c(C(F)(F)F)c3)C(=O)C2(C)C)cc1F [ENZALUTAMIDE]
- Activity (GES1): Non-Toxic
- IC50 at 72 h [2]: > 50000 nM
- IC50 (LNCaP): 23300 nM
- IC50 (PC-3): > 50000 nM
- IC50 (CWR22R): > 50000 nM
- IC50 [3]: 420 nM

SMILES: O=c1cc(C(F)(F)F)c2ccc(OCc3ccc(Br)cc3)cc2o1
- IC50 (Androgen receptor): 590 nM

SMILES: O=c1cc(C(F)(F)F)c2ccc(NCc3ccc(F)cc3)cc2o1
- IC50 at 72 h [2]: 16000 nM
- half-life [4]: 0.21 h
- Cmax [5]: 10.8 ng/mL
- AUC(0-t) [6]: 4.09 ng·h/mL
- IC50 (LNCaP): 1900 nM
- IC50 (PC-3): 21300 nM
- IC50 (DU-145): 6320 nM
- AUC(0-t) [7]: 32.4 ng·h/mL
- IC50 (Androgen receptor): 24 nM
- Cmax [8]: 82.1 ng/mL
- IC50 (LNCaP C4-2B): 4910 nM
- Vd [9]: 9.26 L/kg
- IC50 (CWR22R): 24200 nM
- bioavailability [10]: 2.5%
- clearance [11]: 507 mL/min/kg

SMILES: O=c1cc(C(F)(F)F)c2ccc(NCc3ccc(OC(F)F)cc3)cc2o1
- IC50 (Androgen receptor): 68 nM

SMILES: O=c1cc(C(F)(F)F)c2ccc(NCc3ccc(Br)c(F)c3)cc2o1
- IC50 (Androgen receptor): 69 nM

SMILES: O=c1cc(C(F)(F)F)c2cc(N3CCCC3)c(OCc3ccc(Br)cc3)cc2o1
- IC50 (Androgen receptor): > 10000 nM

SMILES: CN(Cc1ccc(Cl)cc1)c1ccc2c(C(F)(F)F)cc(=O)oc2c1
- Activity (GES1): Non-Toxic
- half-life [4]: 19.8 h
- Cmax [5]: 139 ng/mL
- AUC(0-t) [6]: 724 ng·h/mL
- Vz [12]: 112.33 L/kg
- AUC(0-t) [7]: 750 ng·h/mL
- Cmax [8]: 809 ng/mL
- Activity (NIH3T3): Non-Toxic
- CL/F [13]: 68 mL/min/kg
- Activity [14]: Non-Toxic
- half-life [15]: 11.8 h
- Vd [9]: 27.8 L/kg
- bioavailability [10]: 19.3%
- clearance [11]: 16.3 mL/min/kg

SMILES: CN(Cc1cc(F)ccc1F)c1ccc2c(C(F)(F)F)cc(=O)oc2c1
- IC50 (Androgen receptor): 170 nM

SMILES: Cc1ccc(CNc2ccc3c(C(F)(F)F)cc(=O)oc3c2)cc1F
- IC50 (Androgen receptor): 73 nM

SMILES: O=c1cc(C(F)(F)F)c2cc([N+](=O)[O-])c(OCc3ccc(Br)cc3)cc2o1
- IC50 (Androgen receptor): > 10000 nM

SMILES: CCN(Cc1ccc(Br)cc1)c1ccc2c(C(F)(F)F)cc(=O)oc2c1
- IC50 (Androgen receptor): 100 nM

SMILES: CN(Cc1ccc(Br)cc1)c1ccc2c(C(F)(F)F)cc(=O)oc2c1
- IC50 (Androgen receptor): 97 nM

SMILES: O=c1cc(C(F)(F)F)c2ccc(NCc3ccc(C(F)(F)F)cc3)cc2o1
- IC50 (Androgen receptor): 110 nM

SMILES: O=c1cc(C(F)(F)F)c2ccc(NCc3ccc(O)cc3)cc2o1
- IC50 (Androgen receptor): 640 nM

SMILES: N#Cc1ccc(CNc2ccc3c(C(F)(F)F)cc(=O)oc3c2)cc1
- IC50 (Androgen receptor): 890 nM

SMILES: O=c1cc(C(F)(F)F)c2ccc(NCc3ccccc3Br)cc2o1
- IC50 (Androgen receptor): 100 nM

SMILES: O=c1cc(C(F)(F)F)c2ccc(NCc3ccc(Br)cc3)cc2o1
- IC50 (Androgen receptor): 42 nM

SMILES: O=c1cc(C(F)(F)F)c2ccc(NCc3ccc(Cl)cc3)cc2o1
- half-life [4]: 0.27 h
- Cmax [5]: 258 ng/mL
- AUC(0-t) [6]: 103 ng·h/mL
- AUC(0-t) [7]: 158 ng·h/mL
- Cmax [8]: 395 ng/mL
- Vd [9]: 2.3 L/kg
- bioavailability [10]: 13%
- clearance [11]: 97.7 mL/min/kg

SMILES: O=C(Nc1ccc2c(C(F)(F)F)cc(=O)oc2c1)c1ccc(Br)cc1
- IC50 (Androgen receptor): > 10000 nM

SMILES: O=c1cc(C(F)(F)F)c2cc(N(CC(F)(F)F)CC(F)(F)F)c(OCc3ccc(Br)cc3)cc2o1
- IC50 (Androgen receptor): > 10000 nM

SMILES: O=c1cc(C(F)(F)F)c2ccc(NCc3cc(F)ccc3F)cc2o1
- IC50 (Androgen receptor): 34 nM

SMILES: O=c1cc(C(F)(F)F)c2ccc(NCc3ccc(CO)cc3)cc2o1
- IC50 (Androgen receptor): 92 nM

SMILES: CCN(Cc1ccc(Cl)cc1)c1ccc2c(C(F)(F)F)cc(=O)oc2c1
- IC50 (Androgen receptor): 78 nM

SMILES: O=c1cc(C(F)(F)F)c2ccc(NCc3cccc(Br)c3)cc2o1
- IC50 (Androgen receptor): 110 nM
